Consider 25 compounds from ChEMBL document CHEMBL5512599, “Synthetic non-toxic anti-biofilm agents as a strategy in combating bacterial resistance” (Eur J Med Chem, 2023).

Converted amounts (≈) assume the structure as drawn.

Experiment [1] has as its system Enterococcus faecalis. Nature of the experiment: Antibacterial activity against Enterococcus faecalis ATCC 29212 assessed as bacterial growth inhibition incubated for 15 to 18 hrs by Muller hinton broth based dilution assay. Type of experiment: functional. Particulars: time 15-18 hrs.
Experiment [2] has as its system Enterococcus faecalis. Nature of the experiment: Antibiofilm activity against Enterococcus faecalis ATCC 29212 assessed as biofilm eradication incubated for 20 mins by crystal violet staining based analysis. Type of experiment: functional.
In experiment [3] the test system is Pseudomonas aeruginosa. In words: Antibiofilm activity against Pseudomonas aeruginosa PAO1 assessed as inhibition of biofilm formation incubated at 15 uM relative to control. Format: functional. Also noted: scale not given: the % may be the effect or the level left.
The test system of experiment [4] is Staphylococcus epidermidis. In words: Antibiofilm activity against Staphylococcus epidermidis assessed as inhibition of biofilm formation at 40 uM measured after 24 hrs by confocal laser scanning microscopy analysis relative to control. Also noted: scale not given: the % may be the effect or the level left. Type of experiment: functional.
Experiment [5] has as its system Pseudomonas aeruginosa. Nature of the experiment: Anti-motility activity against Pseudomonas aeruginosa PAO1 assessed as reduction in swarming at 20 uM incubated for 16 hrs by crystal violet staining analysis relative to control. Type of experiment: functional. Also noted: scale not given: the % may be the effect or the level left.
The test system of experiment [6] is Staphylococcus aureus. Nature of the experiment: Antimicrobial activity against Staphylococcus aureus ATCC 25923 assessed as reduction in bacterial growth at 0.25 uM incubated for 16 hrs by broth dilution method relative to control. Format: functional. Set-up: scale not given: the % may be the effect or the level left. In general terms: In broth dilution the organism is exposed to a series of concentrations in liquid medium.

For experiment [7], the system named is Staphylococcus aureus. Nature of the experiment: Antimicrobial activity against Staphylococcus aureus ATCC 25923 assessed as reduction in bacterial growth at 0.5 uM incubated for 16 hrs by broth dilution method relative to control. Set-up: scale not given: the % may be the effect or the level left. Type of experiment: functional.
The subject of experiment [8] is Staphylococcus aureus. Nature of the experiment: Antimicrobial activity against Staphylococcus aureus ATCC 25923 assessed as reduction in bacterial growth at 0.12 uM incubated for 16 hrs by broth dilution method relative to control. Type of experiment: functional. Set-up: scale not given: the % may be the effect or the level left.
The next experiment has as its system Klebsiella pneumoniae. In words: Antibiofilm activity against Klebsiella pneumoniae ATCC 13882 assessed as inhibition of biofilm formation incubated for 24 hrs by crystal violet staining based broth microdilution method. Particulars: ATCC 13882, 24 h. Format: functional, organism-based.
Experiment [9] addresses T1, Transcriptional regulator MvfR (Pseudomonas aeruginosa PA14, UniProt A0A072ZLE6).
T1 sequence (A0A072ZLE6 whole entry): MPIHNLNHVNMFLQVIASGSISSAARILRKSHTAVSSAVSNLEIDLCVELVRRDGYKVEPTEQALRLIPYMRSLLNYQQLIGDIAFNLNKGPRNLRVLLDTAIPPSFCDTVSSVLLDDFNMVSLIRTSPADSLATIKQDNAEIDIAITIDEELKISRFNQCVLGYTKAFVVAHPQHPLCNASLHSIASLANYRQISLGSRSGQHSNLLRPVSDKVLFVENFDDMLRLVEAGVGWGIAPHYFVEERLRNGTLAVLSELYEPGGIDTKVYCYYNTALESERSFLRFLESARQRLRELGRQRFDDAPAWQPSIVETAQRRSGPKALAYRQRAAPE
Nature of the experiment: Inhibition of PqsR-mediated quorum sensing system in Pseudomonas aeruginosa PAO1 assessed as reduction in pyocyanin production.

Experiment [10] deals with Pseudomonas aeruginosa. Nature of the experiment: Antibiofilm activity against Pseudomonas aeruginosa PAO1 assessed as inhibition of biofilm formation at 100 uM relative to control. Type of experiment: functional. Set-up: scale not given: the % may be the effect or the level left.
A short description of experiment [11]: Inhibition of quorum sensing system in Pseudomonas aeruginosa PAO1 assessed as inhibition of pyocyanin production at 256 ug/ml incubated for 24 hrs by absorbance based assay.
Experiment [12] concerns Staphylococcus aureus. In words: Antibiofilm activity against Staphylococcus aureus ATCC 33862 assessed as reduction in biofilm formation at 20 uM incubated for 24 hrs by absorbance based assay relative to control. Format: functional. Also noted: scale not given: the % may be the effect or the level left.
The subject of experiment [13] is Pseudomonas aeruginosa. In words: Antibiofilm activity against Pseudomonas aeruginosa ATCC 10145 assessed as reduction in biofilm formation at 20 uM incubated for 24 hrs by absorbance based assay relative to control. Set-up: scale not given: the % may be the effect or the level left. Format: functional.
Experiment [14] concerns Pseudomonas aeruginosa. In words: Antibiofilm activity against Pseudomonas aeruginosa PA14 assessed as inhibition of biofilm formation incubated for 24 hrs by microscopic analysis. Type of experiment: functional, organism-based. Particulars: PA14, 24 h.
Experiment [15] deals with Staphylococcus aureus. In words: Antibiofilm activity against Staphylococcus aureus ATCC 25923 at 25 ug/ml measured after 24 hrs by crystal violet staining based analysis relative to control. Format: functional. Particulars: dose 25 µg/ml.
Experiment [16] has as its system Staphylococcus aureus. Nature of the experiment: Antibiofilm activity against methicillin-resistant Staphylococcus aureus assessed as inhibition of biofilm formation incubated for overnight by crystal violet staining based microtiter plate assay. Type of experiment: functional, organism-based.
Experiment [17] has as its system Staphylococcus aureus. In words: Antibacterial activity against Staphylococcus aureus ATCC 25923 assessed as reduction in bacterial growth incubated for 18 to 24 hrs by broth microdilution method. Format: functional. The following applies: time 18-24 hrs.
For experiment [18], the system named is Staphylococcus epidermidis. Nature of the experiment: Antibacterial activity against Staphylococcus epidermidis RP62A assessed as reduction in bacterial growth incubated for 18 to 20 hrs by broth microdilution assay. Type of experiment: functional. The following applies: time 18-20 hrs.
Experiment [19] relates to Staphylococcus aureus. Nature of the experiment: Antibacterial activity against Staphylococcus aureus ATCC 6538 assessed as reduction in bacterial growth incubated for 18 to 24 hrs by broth microdilution method. Particulars: time 18-24 hrs. Type of experiment: functional.
Experiment [20] is described as follows: Inhibition of Staphylococcus aureus sortase A by FRET assay.
Experiment [21] concerns Staphylococcus aureus. Nature of the experiment: Antibacterial activity against Staphylococcus aureus ATCC 29213 assessed as reduction in bacterial growth incubated for 18 to 24 hrs by broth microdilution method. Type of experiment: functional. The following applies: time 18-24 hrs.
Experiment [22] deals with Staphylococcus aureus. In words: Antibiofilm activity against Methicillin-resistant Staphylococcus aureus ATCC BAA-4A assessed as inhibition of biofilm formation. Type of experiment: functional, organism-based.
Experiment [23] in a line: Inhibition of Quorum sensing system Las in Pseudomonas aeruginosa PAO1 assessed as reduction in interaction with LasR regulator.
In experiment [24] the target is T1, Transcriptional regulator MvfR. In words: Antagonist activity at PqsR in wild-type Pseudomonas aeruginosa PAO1 assessed as reduction in AQ level at 0.2 uM by LCMS/MS analysis.

A word on the MIC: it is the smallest concentration in the dilution series that meets the test's criterion for growth inhibition. For the compound `N#Cc1ccc(-c2csc(-c3ccc(-c4cnc(-c5ccccc5)s4)cc3)n2)cc1`, the minimum inhibitory concentration (MIC) with Enterococcus faecalis [1] was 0.062 µg/mL (≈ 0.147 µM). In the experiment on Enterococcus faecalis [2], the MBEC amounted to 0.002 µg/mL.

For `O=C(CSC(=S)N[C@@H]1CCOC1=O)CC(=O)Nc1cccc2ccccc12`, in the experiment on Pseudomonas aeruginosa [3], the Activity worked out at 35%.

Consider `Cc1cccc(NC(=O)CC(=O)CSC(=S)N[C@@H]2CCOC2=O)c1`, for which the Activity with Pseudomonas aeruginosa [3] was 35%.

Take `CN(C)c1cccc(/C=N/N=C2\SCC(=O)N2c2ccc(S(N)(=O)=O)cc2)c1`: the Activity (in [4]; with Pseudomonas aeruginosa [5]) was 70% in each case.

Consider `Cc1ccc(C(=O)c2nn(-c3nc(-c4ccccc4)c(-c4sc(-n5nc(C(=O)c6ccc(C(F)(F)F)cc6)c(C(N)=O)c5N)nc4-c4ccccc4)s3)c(N)c2C(N)=O)cc1`, for which the Activity was 50% in the experiment on Staphylococcus aureus [6], 77% with Staphylococcus aureus [7] and 35% in the experiment with Staphylococcus aureus [8].

For orientation: IC50 means the midpoint of a concentration-inhibition curve. For `Nc1nccc(-c2cccc(NC(=O)c3cc(Cl)cc(Cl)c3)c2)n1`, the IC50 with Klebsiella pneumoniae was determined as 26.4 µM.

With `Clc1ccc2c(NCCCCCCCCNCc3cc4ccccc4o3)ccnc2c1`, the IC50 in experiment [9] stood at 25 µM.

As to `N#Cc1ccnc(C(F)F)c1`, the Activity in the experiment with Pseudomonas aeruginosa [10] was 73%. The IC50 in experiment [11] amounted to 17 µM.

For `CCCCCCCCCCCC(=O)Nc1c(N)[nH]c2ccccc2c1=O`, the Activity result in the experiment on Staphylococcus aureus [12] and with Pseudomonas aeruginosa [13] was “>=50%” each time.

As for `CCCCCCN(CCCCCC)C(=O)CCCc1c[nH]c(N)n1`, the IC50 with Pseudomonas aeruginosa [14] stood at 60 µM.

Regarding `Cc1nn(C)c([N-]C(=O)c2ccc(Cl)cc2)c1[N+]#N`, in the experiment on Staphylococcus aureus [15], the Activity is 69%.

In the case of `CCCCCCCCCCCCCCCC(=O)Nc1cc(=O)c2ccccc2[nH]1`, the Activity result in the experiment on Staphylococcus aureus [12] and in the experiment on Pseudomonas aeruginosa [13] was “>=50%” in each case.

In the case of `CCCCCc1ccc(C(=O)NCCn2cc(CCCCCc3c[nH]c(N)n3)nn2)cc1`, the IC50 in the experiment on Staphylococcus aureus [16] is under 7.2 µM.

In the case of `CC(=O)/C(=N\Nc1ccc([N+](=O)[O-])cc1)C(=O)O`, the MIC (with Staphylococcus aureus [17]; in experiment [18]; in the experiment on Staphylococcus aureus [19]; in the experiment on Staphylococcus aureus [21]) was over 270 µM each time. The same compound showed an IC50 in [20] of 57 µM.

Turning to `COC(=O)c1ccnc(C(F)F)c1`, the Activity with Pseudomonas aeruginosa [10] is reported as 85%. For the same compound, the IC50 in experiment [11] is 27 µM.

Take `CCCCCc1ccc(C(=O)NCCn2cc(CCCCCc3[nH]cnc3-c3ccc4c(c3)OCO4)nn2)cc1`: the IC50 in the experiment with Staphylococcus aureus [22] was determined as 3.7 µM.

Turning to `CCOC(=O)C1S/C(=N\N=C\c2cccc(Cl)c2)N(c2ccc(S(N)(=O)=O)cc2)C1=O` (stereo not drawn), the results for the Activity (in experiment [4]; in the experiment on Pseudomonas aeruginosa [5]) were 80% and 72%, respectively.

As for `CCCCCCCC(=O)NC1CCCC1`, in experiment [23], the IC50 came out at 250 µM.

On to `C/C(=C\c1ccc2ccccc2c1)Cn1cc(CCCCCc2c[nH]c(N)n2)nn1`, for which the IC50 with Staphylococcus aureus [16] was under 10 µM.

Regarding `CCCCCc1ccc(C(=O)NCCn2cc(CCCCCc3[nH]cnc3-c3cnc4ccccc4c3)nn2)cc1`, in the experiment on Staphylococcus aureus [22], the IC50 turned out to be 3.7 µM.

For `CCCCCCCCCCCCCC(=O)Nc1cc(=O)c2ccccc2[nH]1`, the Activity result with Staphylococcus aureus [12] and with Pseudomonas aeruginosa [13] was “>=50%” each time.

In the case of `CC(=O)/C(=N\Nc1ccc(Cl)c(Cl)c1)C(=O)O`, the MIC (in the experiment with Staphylococcus aureus [17]; in [18]; in the experiment on Staphylococcus aureus [19]; in the experiment with Staphylococcus aureus [21]) was over 270 µM throughout. Besides, inhibition in experiment [20] was half-maximal at 50 µM (IC50).

The compound `Cc1nn(C)c(NC(=O)c2ccc([N+](=O)[O-])cc2)c1[N+]#N` showed an Activity in the experiment with Staphylococcus aureus [15] of 96%.

On to `CCCCCCC(CCCCCC)NC(=O)CCCc1c[nH]c(N)n1`, for which the IC50 with Pseudomonas aeruginosa [14] is 16 µM.

For the compound `N#CCc1ccc(OC[C@H](O)Cn2cnc3ccc(Cl)cc3c2=O)cc1`, the IC50 in [24] amounted to 1.1 µM.
